Usually melting point stands for the temperature, or range, at which the solid turns liquid.

We go through 87 molecules from a melting point compilation (Tetko et al.; mined from patent text by program, amines drawn as free bases though some values may be those of a salt).

For the molecule `OCc1c(CO)c2sc3ccccc3n2c1-c1ccc(Cl)cc1`, the melting point was 151 to 152 °C.
Under `CCC1NC(c2cc(Cl)nc(Cl)c2)=NC(=O)C1C(=O)OC` (configuration not stated) stands 188 to 189 °C.
Under `CCCc1cc(CCC)n2nc(N3CCN(C(=O)OCC)CC3)nc2n1` stands 130 to 132 °C; under `O=C(O)CCCCCc1oc(-n2cnc3ccccc32)nc1-c1ccc(Cl)cc1`, 158 to 159 °C; under `CCOC(=O)/C(C)=C/c1ccc(OC(C)C)cc1Oc1ncc(C(F)(F)F)cc1Cl`, 61 to 62 °C.
`COc1ccc(C2(c3ccc(OC)cc3)CN(c3ccc(S(C)(=O)=O)cc3)C(c3ccc(Cl)cc3)=N2)cc1`: the melting point was 110 to 113 °C.
As for `CCCc1cccc2sc(Sc3ccc4c(c3)CC[C@H]3N(C)C(=O)CC[C@]43C)nc12`, the melting point fell in the range of 109 to 111 °C.
Under `COc1ccc(C2(CCN3CCC(O)(c4nc5ccccc5n4Cc4ccc(F)cc4)CC3)CCN(C(=O)c3cc(OC)c(OC)c(OC)c3)C2)cc1OC` (configuration not stated) stands 110 to 120 °C; under `COc1ccc(Cn2cc(C(=O)NCCN(C)C)c3nc4c(C)cccc4cc3c2=O)cc1OC`, 213 to 214 °C.
Under `CCCCCCCOc1ccc(COc2ccc(-c3ccc(OC(C)CCCCCC)cc3)cc2)cc1` (configuration not stated) stands 98.1 °C; under `CN(C)c1ccccc1CC(=N)N1C[C@@H]2C(=O)CCC(c3ccccc3)(c3ccccc3)[C@@H]2C1`, 188 °C.
Under `O=S(=O)(On1nnc2ccccc21)c1ccccc1` stands 83 to 84 °C; under `CCCCCCCCC1N(C)c2cccc3cccc(c23)N1C`, 62 to 63 °C.
Molecule `Cc1cc(F)ccc1C1=C(c2ccc(S(C)(=O)=O)cc2)CCC1` returned a melting point of 112 to 114 °C.
Under `Cc1oc(-c2ccccc2)nc1COc1ccc(Cc2nc(CCC(=O)O)c(-c3ccccc3)o2)cc1` stands 136 to 137 °C; under `CSc1ncc(Cc2cccnc2)c(=S)[nH]1`, 211 to 213 °C.
Under `O=C(Nc1nnn[nH]1)c1oc2ccc(Cl)cc2c1OCC1CC1` stands 243 to 244 °C.
For `Cc1cccc(-c2n[nH]cc2-c2ccc(F)c(-c3cn4c(n3)S(=O)CC4)c2)n1` (configuration not stated), the melting point fell in the range of 140 to 144 °C.
Under `CN1CCN(c2ccnc3c(NC(=O)c4c(Cl)cccc4Cl)cc(C(F)(F)F)cc23)C1=O` stands > 285 °C; under `CN(C)C=C(C#N)C(=O)c1cc(F)c(F)c(F)c1F`, 149 to 151 °C; under `COc1cc(C(C)C)c(Oc2cnc(N)nc2N)cc1C#CC1CC1`, 226 to 227 °C.
Under `Fc1cccc(C(c2ccnc3ccccc23)n2ccnc2)c1` (configuration not stated) stands 140 °C; under `Cc1c(C)c(C)c2c(c1C)CCCC2`, 81.5 to 82 °C; under `O=c1cc(-c2ccccc2)c2ccc(COc3cc(F)cc(-c4ccccc4)c3)cc2o1`, 129 to 131 °C.
Molecule `O=S(=O)(C=CC(=Nc1ccccc1)Oc1ccccc1)c1ccccc1` displayed a melting point of 110 to 116 °C.
Under `O=C(O)CCCC(=O)ON1C(=O)CCC1=O` stands 81 to 83 °C.
Under `O=C(c1ccc(Cl)cc1)c1cc2ccccc2cc1O` stands 135 to 137 °C; under `Cc1c(NCCNC(=O)OC(C)(C)C)c([N+](=O)[O-])c2nnnn2c1C`, 145 to 147 °C.
The molecule `CCOP(=O)(OCC)C(Nc1nc2ccccc2[nH]1)P(=O)(OCC)OCC` gave a melting point of 169 to 170 °C.
Under `CCOc1ccc(N(c2ccccc2)C2(c3ccc(N(CC)Cc4ccccc4)cc3)OC(=O)c3ccccc32)cc1` (configuration not stated) stands 163 to 173 °C; under `CCOC(=O)CCSc1nnsc1-c1ccc(C)cc1`, 68.5 to 69.5 °C.
Under `O=C(Nc1ccc(Cl)cn1)c1cc(Cl)ccc1NCC1CCN(C(=O)c2cccs2)CC1` stands 163 to 165 °C; under `CCNC(=O)c1cccc(-c2ccc3ncn(CCc4ccc(OC)c(OC)c4)c3n2)c1`, 152 to 153 °C.
Turning to `CNc1cc(Cl)ccc1C(C)=O`, the melting point is 65 to 66 °C.
Under `O=C1Nc2cc(Cl)ccc2C(=O)C1c1csc2ccccc12` (configuration not stated) stands 320 °C; under `CC1(C)C(=O)Nc2ccccc2NC1=O`, > 270 °C; under `Cc1ccc(-c2nc(C)c(C)c(=O)[nH]2)cc1`, 250 °C.
Under `COc1ccc2cc(NCc3ccc(OCc4ccccc4)cc3)ccc2c1` stands 139 to 141 °C.
Under `CC(C)(C)OC(=O)N1CCN(C(=O)CCc2cccnc2)CC1` stands 125 to 126 °C; under `Cc1nc(N2CCN(CCC3CC3)C2=O)sc1C(=O)NCc1ccc(F)cc1`, 122 to 123 °C.
Consider `OCc1cn(-c2ccc(OC(F)(F)F)c(Cl)c2)cn1`, for which the melting point lay within 115 to 116 °C.
Under `Cc1ccc(S(=O)(=O)Nc2cccc3cc(C(N)=O)[nH]c23)cc1` stands 312 to 313 °C; under `CN(CCOc1ccc(CC(Cl)C(=O)O)cc1)c1nc2ccccc2o1` (configuration not stated), 142 to 143 °C; under `COc1cc2ccc(C(=O)CCl)cc2cc1OC`, 137 to 140 °C.
Under `Cc1nc(-n2c(C)ccc2C)nc(C)c1Br` stands 64 to 65 °C; under `Cn1nnnc1SCCCS(=O)(=O)c1ccccn1`, 98.5 to 101 °C.
Under `O=C1CCC(C(=O)O)(c2ccc(F)cc2)CC1` stands 117 to 122 °C.
For `CCOC(=O)CC(=O)c1cc(F)c(F)c(Cl)c1Cl`, the melting point lay in the range of 52 to 53 °C.
Under `Cc1ccc(S(=O)(=O)N(C)c2ccc(Cl)cc2C(=O)O)cc1` stands 175 to 177 °C; under `COc1ccc(-c2c(C(=O)CC(C)C)c(C)nc3cc(OC)c(OC)cc23)cc1OC`, 135 to 137 °C; under `Cc1ncc2cc(-c3c(Cl)cccc3Br)c(N)nc2n1`, 272 to 274 °C.
On to `CCOC(=O)c1ccccc1NC(=O)CNc1ccccc1F`, for which the melting point was 79 to 81 °C.
Under `Cc1cc(C2(c3cccc(-c4cncnc4)c3)N=C(N)N(C)C2=O)ccc1O[C@H](C)c1ccccc1` (some centres not stated) stands 112 to 114 °C; under `C[C@@H]1N=C(c2ccccc2)c2cc(N)ccc2N(C)C1=O`, 219 to 221 °C; under `C=CCOc1ccc(C#N)c(Cl)c1`, 50 to 52 °C.
Under `CC(C)(C)c1ccc(Oc2coc(C(=O)O)cc2=O)cc1` stands 190 to 193 °C; under `O=C(NCN1CCN(c2ccccn2)CC1)c1ccccc1`, 125 to 127 °C.
On to `O=C(O)Cc1c(C(=O)c2cccs2)[nH]c2cc(Cl)ccc12`, for which the melting point fell in the range of 177 to 178 °C.
Under `O=C1Nc2ccccc2C1c1ncnc2c1cnn2C1CCCC1` (configuration not stated) stands 228 to 231 °C; under `C/C(=N\O)c1cccc(-c2nc3sccn3c2-c2ccnc(N[C@@H]3CCCN(S(=O)(=O)c4ccc(Cl)cc4)C3)n2)c1`, 156 to 158 °C; under `Cc1cccn2ccnc12`, 150 to 152 °C.
Turning to `O=C1CC2(CCCC2)CC(=O)N1c1ccncc1`, the melting point lay within 208 to 211 °C.
Molecule `COc1cc2[nH]c(=O)c3c(c2cc1OC)CCN(CCC1CCCCC1)C3` showed a melting point of 195 to 198 °C.
Under `CC(C(=O)C=Cc1ccc(Cl)cc1)n1cncn1` (configuration not stated) stands 115 to 116 °C; under `O=C(COc1ccc(Cl)c(Cl)c1)Nc1cscc1C(=O)O`, 258 to 264 °C; under `Fc1ccc(-c2[nH]cc(-c3c(F)c(F)nc(F)c3F)c2-c2ccncc2)cc1`, > 300 °C.
Under `CC(C)(C)OC(=O)N1[C@@H](Cc2cccc([Si](C)(C)C)c2)C(=O)O[C@H](c2ccccc2)[C@@H]1c1ccccc1` stands 88 to 90 °C.
Under `CCCN(CCC)C(=O)COc1cc(C)nc(-c2ccccc2)n1` stands 68 to 69 °C; under `Cc1cccc(COc2ccc(CC(NC(=O)c3cn4ccc(-c5ccc(Cl)cc5)cc4n3)C(=O)O)cc2)c1` (configuration not stated), 245 to 246 °C.
`O=c1ccc2c(-n3cnc(Br)c3)nccc2[nH]1`: the melting point was 278 to 280 °C.
Under `CCC(CC)c1nn(-c2ncc(C(F)(F)F)cn2)cc1CCCOc1c(C)cccc1CC(=O)O` stands 110 to 111 °C; under `CCNC(=S)Nc1cc(F)ccc1C`, 93 to 95 °C; under `CCCCc1c(C(=O)c2ccc(OC)cc2)n(C)c2ccc([N+](=O)[O-])cc12`, 102 °C.
Under `O=C1C(=CNCCO)Cc2cc(Cl)ccc21` stands 164 to 166 °C; under `CCOC(=O)C1=C(C)Nc2nc(N3CCCCC3)nc(N3CCCCC3)c2C1c1cccc([N+](=O)[O-])c1` (configuration not stated), 169 °C; under `CNc1cc(Oc2ccc(NC(=O)Nc3ccc(-c4cccnc4)c(C(F)(F)F)c3)cc2)ncn1`, 118 to 123 °C.
Under `Cn1ncc(/C=C/C(=O)Nc2ccc(CC(C)(C)C)cc2)c1-c1ccc(F)cc1` stands 150 to 151 °C.
Take `Nc1ccc(C#Cc2ccc(N3CCN4CCC3CC4)nn2)cc1`: the melting point fell in the range of 182 to 183 °C.
Under `CS(=O)(=O)c1ccc(-c2cc(C=O)sc2-c2ccc(F)cc2)cc1` stands 165 to 166 °C; under `COC(=O)c1cn(S(=O)(=O)c2ccccc2)c2ncc([N+](=O)[O-])cc12`, 195 to 196 °C; under `COC(=O)c1cc(C#Cc2ccc(C(=O)OC(C)(C)C)cc2)cnc1Cl`, 123 to 124 °C.
Under `Fc1ccc(CCN2CCC(n3ccc4ccc(Br)cc43)CC2)cc1` stands 99 to 101 °C; under `O=S(=O)(Oc1ccc(C(c2ccc(OS(=O)(=O)c3ccccc3)cc2)(C(F)(F)F)C(F)(F)F)cc1)c1ccccc1`, 133 to 134 °C; under `O=C1c2cccc(-n3c(=O)[nH]c4ncccc4c3=O)c2C2CCCCN12` (configuration not stated), > 290 °C.
Under `COc1c(-c2cc3c(s2)CCC(C)(C)C3O)ccc2c(=O)c(C(=O)O)cn(C3CC3)c12` (configuration not stated) stands 93 to 94 °C; under `O=S(=O)(N[C@H](CO)Cc1c[nH]c2ccccc12)c1cccc2ccccc12`, 85 to 87 °C.
Regarding `COc1cc(C(C)O)ccc1OCCCC1CNCCC1C(c1ccc(F)cc1)c1ccc(F)cc1` (configuration not stated), the melting point was in the range of 132 to 135 °C.
